Measurements as given in EP4603105A1, “PHARMACEUTICAL COMPOSITION CONTAINING CYCLIC COMPOUND HAVING SELECTIVE KRAS INHIBITORY EFFECT AGAINST HRAS AND NRAS” (CHUGAI SEIYAKU KABUSHIKI KAISHA, priority 2022, dated 2024).
*1 amine or outer side, *2 acyl side, *3 side chain or, on linkers, in order; H or OH if unused. Where a SMILES comes first, the peptide text is derived from it. Bridges are numbered along the chain shown (N, C = ends). [ ]: non-standard residue; d: D form. The star is where a group is joined. X6 = CC(C)(C)CCN([C@@H](Cc1ccc(C(F)(F)F)cc1)C(=O)[*:2])[*:1]; hPhe(3-Cl-4-CF3) = N[C@@H](CCc1ccc(C(F)(F)F)c(Cl)c1)C(=O)O; NMeGly(cPent) = CN[C@H](C(=O)O)C1CCCC1; NMeD = CN[C@@H](CC(=O)O)C(=O)O; NMeL = CN[C@@H](CC(C)C)C(=O)O; Morpholide = C1CN(*)CCO1; Ac5c = NC1(C(=O)O)CCCC1; Sar = CNCC(=O)O

Key:
[1] = biological target: GDP-bound NRAS wild-type protein (Homo sapiens, UniProt P01111); assay: Binding to NRAS by surface plasmon resonance (SPR), KD and KD ratio to KRAS
Method in brief: (§1)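 Affinity is measured by surface plasmon resonance at 30°C against captured, GDP-loaded RAS carrying a biotinylated Avi tag. Compounds are titrated by single-cycle kinetics, and KD comes from a 1:1 fit.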

[2] = test system: human lung cancer strain NCI-H441; type: cell-based
Method in brief: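 Readout: […] after the ATP-based reagent. Compound: serial dilutions in dimethyl sulfoxide.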

HRAS wild-type protein = HRAS wild-type protein (Homo sapiens, UniProt P01112); assay: Binding to HRAS by surface plasmon resonance (SPR), KD and KD ratio to KRAS
Method in brief: as §1

[3] = biological target: GDP-bound KRAS wild-type protein (Homo sapiens, UniProt P01116); assay: Binding to KRAS by surface plasmon resonance (SPR), dissociation constant KD
Method in brief: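 Single-cycle kinetics on GDP-loaded biotin-Avi RAS captured to ~100–300 RU; 75 s ascending injections, 100 µL/min, 30°C. HBS pH 7.4 + 10 mM MgCl2/10 µM GDP/4% DMSO. 1:1 fit, KD.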

[4] = ratio of KD for GDP-bound NRAS wild-type protein to KD for KRAS
[5] = ratio of KD for HRAS wild-type protein to KD for KRAS
[6] = ratio of the KD value with respect to GDP-bound NRAS wild-type protein to the KD value with respect to KRAS
[7] = ratio of the KD value with respect to HRAS wild-type protein to the KD value with respect to KRAS
[8] = Single Cycle Kinetics, 1:1 binding model
[9] = ratio of KD value for GDP-bound NRAS wild-type protein to KD value for KRAS (SPR)
[10] = ratio of KD value for HRAS wild-type protein to KD value for KRAS (SPR)

Chain of GDP-bound NRAS wild-type protein (P01111 whole entry): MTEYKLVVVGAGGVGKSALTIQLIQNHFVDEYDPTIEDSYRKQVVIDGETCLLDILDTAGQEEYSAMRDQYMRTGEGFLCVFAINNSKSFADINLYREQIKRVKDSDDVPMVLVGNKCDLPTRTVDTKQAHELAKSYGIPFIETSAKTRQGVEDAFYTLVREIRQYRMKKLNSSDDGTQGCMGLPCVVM
Chain of HRAS wild-type protein (P01112 whole entry): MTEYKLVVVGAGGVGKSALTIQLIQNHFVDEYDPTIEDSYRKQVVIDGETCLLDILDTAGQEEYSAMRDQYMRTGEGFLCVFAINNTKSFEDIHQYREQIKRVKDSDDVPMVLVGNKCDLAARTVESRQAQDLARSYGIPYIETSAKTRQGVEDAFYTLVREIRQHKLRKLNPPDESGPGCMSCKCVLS
Chain of GDP-bound KRAS wild-type protein (P01116 1-188 isoform P01116-2): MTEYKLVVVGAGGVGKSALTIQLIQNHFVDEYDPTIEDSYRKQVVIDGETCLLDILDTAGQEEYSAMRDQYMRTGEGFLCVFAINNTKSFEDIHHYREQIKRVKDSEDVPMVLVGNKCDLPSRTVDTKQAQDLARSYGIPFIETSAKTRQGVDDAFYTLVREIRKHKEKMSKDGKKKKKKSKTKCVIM

| SMILES | IC50 [2] [nM] | Kd ([3]; 1:1 binding model) [nM] | Kd [3, 8] [nM] | Kd ([3]; Single Cycle Kinetics) [nM] | NRAS /KRAS [1, 4] | HRAS /KRAS (HRAS wild-type protein; [5]) | NRAS /KRAS [1, 6] | HRAS /KRAS (HRAS wild-type protein; [7]) | NRAS /KRAS [1, 9] | HRAS /KRAS (HRAS wild-type protein; [10]) |
| --- | --- | --- | --- | --- | --- | --- | --- | --- | --- | --- |
| CC[C@H](C)[C@@H]1NC(=O)[C@H](CC(C)C)N(C)C(=O)C[C@@H](C(=O)N2CCOCC2)N(C)C(=O)[C@H](C2CCCC2)N(C)C(=O)C2(CCCC2)NC(=O)[C@@H]2CCCN2C(=O)[C@H](CCc2ccc(C(F)(F)F)c(Cl)c2)NC(=O)CN(C)C(=O)[C@H](Cc2ccc(C(F)(F)F)cc2)N(CCC(C)(C)C)C(=O)CN(C)C(=O)CN(C)C1=O [PP0127] ([NMeL]I[Sar][Sar][X6][Sar][hPhe(3-Cl-4-CF3)]P[Ac5c][NMeGly(cPent)][NMeD]-Morpholide; lactam N-11) | 25.3 | 0.92 | – | – | C (A compound having a KD ratio of 0.1 or more and less than 3 is denoted as C) | C (A compound having a KD ratio of 0.1 or more and less than 3 is denoted as C) | – | – | – | – |
| CCO[C@@H]1C[C@H]2C(=O)NC3(CC(C)(C)C3)C(=O)N(C)[C@@H](C(CC)CC)C(=O)N(C)[C@H](C(=O)N(C)C)CC(=O)N(C)[C@@H](CC)C(=O)N[C@@H]([C@@H](C)CC)C(=O)N(C)CC(=O)N(C)[C@H]3C/C=C\CCN(C3=O)[C@@H](Cc3ccc(C(F)(F)F)cc3)C(=O)N(C)CC(=O)N[C@@H](CCc3ccc(Cl)c(Cl)c3)C(=O)N2C1 [PP2179] | 13.5 | – | 1.5 | – | – | – | AA (a compound having 20 or more is denoted as AA) | A (a compound having 10 or more and less than 20 is denoted as A) | – | – |
| CCO[C@@H]1C[C@H]2C(=O)NC3(CCC3)C(=O)N(C)[C@@H](C(CC)CC)C(=O)N(C)[C@H](C)CC(=O)N(C)[C@@H](CC3CC3)C(=O)N[C@@H]([C@@H](C)CC)C(=O)N(C)CC(=O)N(C)[C@H]3C/C=C\CCN(C3=O)[C@@H](Cc3ccc(F)cc3C)C(=O)N(C)CC(=O)N[C@@H](CCc3cc(F)c(C(F)(F)F)c(F)c3)C(=O)N2C1 [PP1520] | 575 | – | 6.6 | – | – | – | – | – | A (a compound having 10 or more and less than 20 is denoted as A) | A (a compound having 10 or more and less than 20 is denoted as A) |
| CC[C@H](C)[C@@H]1NC(=O)[C@H](CC2CC2)N(C)C(=O)C[C@@H](C(=O)N2CCCC2)N(C)C(=O)[C@H](C2CCCC2)N(C)C(=O)C2(CCCC2)NC(=O)[C@@H]2C[C@@H](C(F)(F)F)CN2C(=O)[C@H](CCc2cc(F)c(C(F)(F)F)c(F)c2)NC(=O)CN(C)C(=O)[C@H](Cc2ccc(F)cc2)N2CC/C=C\C[C@@H](C2=O)N(C)C(=O)CN(C)C1=O [PP1509] | 67.9 | – | 0.4 | – | – | – | – | – | A (a compound having 10 or more and less than 20 is denoted as A) | A (a compound having 10 or more and less than 20 is denoted as A) |

Now those with a lower IC50 [2], led by results:

| IC50 [2] [nM] | Kd ([3]; 1:1 binding model) [nM] | Kd [3, 8] [nM] | Kd ([3]; Single Cycle Kinetics) [nM] | SMILES | NRAS /KRAS [1, 4] | HRAS /KRAS (HRAS wild-type protein; [5]) | NRAS /KRAS [1, 6] | HRAS /KRAS (HRAS wild-type protein; [7]) | NRAS /KRAS [1, 9] | HRAS /KRAS (HRAS wild-type protein; [10]) |
| --- | --- | --- | --- | --- | --- | --- | --- | --- | --- | --- |
| 7.3 | 0.083 | – | – | CCO[C@@H]1C[C@H]2C(=O)NC3(CCC3)C(=O)N(C)[C@@H](C3CCCC3)C(=O)N(C)[C@H](C(=O)N(C)CC)CC(=O)N(C)[C@@H](CC(C)C)C(=O)N[C@@H]([C@@H](C)CC)C(=O)N(C)CC(=O)N(C)[C@H]3C/C=C\CCN(C3=O)[C@@H](Cc3ccc(C(F)(F)F)cc3)C(=O)N(C)CC(=O)N[C@@H](CCc3ccc(C(F)(F)F)c(Cl)c3)C(=O)N2C1 [PP2847] | A (a compound having 10 or more and less than 20 is denoted as A) | A (a compound having 10 or more and less than 20 is denoted as A) | – | – | – | – |
| 7.5 | – | – | 0.039 | CC[C@H](C)[C@@H]1NC(=O)[C@H](CC(C)C)N(C)C(=O)C[C@@H](C(=O)N2CCOCC2)N(C)C(=O)[C@H](C2CCCC2)N(C)C(=O)C2(CCC2)NC(=O)[C@@H]2C[C@@H](OCC3CC3)CN2C(=O)[C@H](CCc2cc(F)c(C(F)(F)F)c(F)c2)NC(=O)CN(C)C(=O)[C@H](Cc2ccc(C(F)(F)F)cc2)N2CCCC[C@@H](C2=O)N(C)C(=O)CN(C)C1=O [PP1000] | B (a compound having 3 or more and less than 10 is denoted as B) | B (a compound having 3 or more and less than 10 is denoted as B) | – | – | – | – |
| 10.5 | – | 0.17 | – | CC[C@H](C)[C@@H]1NC(=O)[C@H](CC(C)C)N(C)C(=O)C[C@@H](C(=O)N(C)C)N(C)C(=O)[C@H](C2CCCC2)N(C)C(=O)C2(CCCC2)NC(=O)[C@@H]2C[C@@H](C)CN2C(=O)[C@H](CCc2cc(F)c(C(F)(F)F)c(F)c2)NC(=O)CN(C)C(=O)[C@H](Cc2ccc(C)cc2)N2CC/C=C\C[C@@H](C2=O)N(C)C(=O)CN(C)C1=O [PP2189] | – | – | A (a compound having 10 or more and less than 20 is denoted as A) | A (a compound having 10 or more and less than 20 is denoted as A) | – | – |
| 10.1 | – | 0.082 | – | CCCN(C)C(=O)[C@@H]1CC(=O)N(C)[C@@H](CC(F)F)C(=O)N[C@@H]([C@@H](C)CC)C(=O)N(C)CC(=O)N(C)[C@H]2C/C=C\CCN(C2=O)[C@@H](Cc2ccc(C(F)(F)F)cc2)C(=O)N(C)CC(=O)N[C@@H](CCc2ccc(C(F)(F)F)c(OC)c2)C(=O)N2C[C@@H](C)C[C@H]2C(=O)NC2(CCC2)C(=O)N(C)[C@@H](C2CCCC2)C(=O)N1C [PP2024] | – | – | A (a compound having 10 or more and less than 20 is denoted as A) | B (a compound having 3 or more and less than 10 is denoted as B) | – | – |
